Data taken from ChEMBL document CHEMBL3045258, “Benzimidazole, Benzoxazole and Benzothiazole Derivatives as 5HT2B Receptor Ligands. Synthesis and Preliminary Pharmacological Evaluation” (Med Chem Res, 2005).
The source made the active and inactive calls. No cut-off for these calls is given here.

Assays:
[1] = biological target: 5-hydroxytryptamine receptor 2A (Rattus norvegicus) (UniProt P14842); experiment: Displacement of [3H]ketansarin from 5-HT2A in Rattus norvegicus CD (rat) […] sections at 10 uM after 1 hr
[2] = biological target: 5-hydroxytryptamine receptor 2B (Rattus norvegicus) (UniProt P30994); experiment: Binding affinity to 5-HT2B in Rattus norvegicus CD (rat) stomach fundus sections after 1 hr
[3] = biological target: T1, 5-hydroxytryptamine receptor 2C (Rattus norvegicus) (UniProt P08909); experiment: Displacement of [3H]mesulergine from 5-HT2C in Rattus norvegicus CD (rat) […] sections at 10 uM after 1 hr
T1 sequence (whole entry): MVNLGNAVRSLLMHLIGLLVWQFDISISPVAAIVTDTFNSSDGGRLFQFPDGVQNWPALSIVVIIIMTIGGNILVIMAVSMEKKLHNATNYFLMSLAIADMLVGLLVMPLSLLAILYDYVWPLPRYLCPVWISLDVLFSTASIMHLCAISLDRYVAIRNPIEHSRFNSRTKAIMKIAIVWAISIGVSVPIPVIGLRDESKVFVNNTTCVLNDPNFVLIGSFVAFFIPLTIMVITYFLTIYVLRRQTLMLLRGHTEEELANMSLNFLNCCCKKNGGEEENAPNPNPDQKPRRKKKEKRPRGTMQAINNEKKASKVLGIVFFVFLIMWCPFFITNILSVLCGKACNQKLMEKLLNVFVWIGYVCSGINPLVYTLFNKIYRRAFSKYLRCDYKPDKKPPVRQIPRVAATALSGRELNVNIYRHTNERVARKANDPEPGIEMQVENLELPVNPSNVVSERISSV

[4] = biological target: 5-hydroxytryptamine receptor 2B (Rattus norvegicus) (UniProt P30994); experiment: Non-surmountable antagonist activity at 5-HT2B in Rattus norvegicus CD (rat) stomach fundus sections assessed as inhibition of serotonin-induced contractile response after 1 hr
[5] = biological target: 5-hydroxytryptamine receptor 2B (Rattus norvegicus) (UniProt P30994); experiment: Antagonist activity at 5-HT2B in Rattus norvegicus CD (rat) stomach fundus sections assessed as inhibition of serotonin-induced contractile response at 10 '-5 M after 1 hr

5-hydroxytryptamine receptor 2B (Rattus norvegicus), sequence (P30994 whole entry): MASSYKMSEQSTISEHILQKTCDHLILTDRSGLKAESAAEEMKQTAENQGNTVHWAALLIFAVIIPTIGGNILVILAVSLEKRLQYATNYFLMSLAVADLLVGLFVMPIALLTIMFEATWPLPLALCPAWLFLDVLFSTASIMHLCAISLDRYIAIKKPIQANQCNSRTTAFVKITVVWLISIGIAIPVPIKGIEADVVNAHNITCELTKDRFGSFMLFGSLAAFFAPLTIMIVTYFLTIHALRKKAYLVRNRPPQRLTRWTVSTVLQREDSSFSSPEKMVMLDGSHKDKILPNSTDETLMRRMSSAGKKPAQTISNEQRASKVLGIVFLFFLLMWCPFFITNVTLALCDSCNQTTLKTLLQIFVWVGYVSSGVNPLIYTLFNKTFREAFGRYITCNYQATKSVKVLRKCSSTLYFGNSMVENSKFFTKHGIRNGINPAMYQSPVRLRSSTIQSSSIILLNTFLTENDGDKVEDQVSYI
5-hydroxytryptamine receptor 2A (Rattus norvegicus), sequence (P14842 whole entry): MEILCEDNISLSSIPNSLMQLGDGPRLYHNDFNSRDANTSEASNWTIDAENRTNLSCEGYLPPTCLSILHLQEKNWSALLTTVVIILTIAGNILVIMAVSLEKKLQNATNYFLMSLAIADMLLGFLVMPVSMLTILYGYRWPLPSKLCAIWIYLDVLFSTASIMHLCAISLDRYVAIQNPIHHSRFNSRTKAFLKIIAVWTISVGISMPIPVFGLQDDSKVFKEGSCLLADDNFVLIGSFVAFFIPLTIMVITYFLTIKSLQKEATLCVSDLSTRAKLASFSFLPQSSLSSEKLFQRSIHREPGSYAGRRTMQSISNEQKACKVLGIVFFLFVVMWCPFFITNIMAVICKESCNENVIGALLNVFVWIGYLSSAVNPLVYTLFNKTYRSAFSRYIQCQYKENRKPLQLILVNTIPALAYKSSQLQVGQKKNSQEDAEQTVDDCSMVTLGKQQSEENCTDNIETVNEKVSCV

| SMILES | Activity [1] | pKb [2] | Activity [3] | inhibition [4] | inhibition [5] |
| --- | --- | --- | --- | --- | --- |
| O=C(Cc1ccccc1)c1cc2ccccc2[nH]1 | < 5% | 5.58 | < 5% | inactive | – |
| COc1ccc(CC2NCCc3c2[nH]c2ccccc32)cc1OC (configuration not stated) | – | 9.17 | – | – | – |
| c1ccc(CCc2nc3ccccc3[nH]2)cc1 | < 5% | 5.29 | < 5% | inactive | – |
| OC(Cc1ccccc1)c1nc2ccccc2[nH]1 (configuration not stated) | < 5% | 5.16 | < 5% | inactive | – |
| CCNCc1nc2ccccc2[nH]1 | < 5% | < 5 | < 5% | inactive | inactive |
| COc1ccc(CCc2nc3ccccc3[nH]2)cc1OC | < 5% | 5.84 | < 5% | inactive | – |
| COc1ccc(CC(O)c2nc3ccccc3[nH]2)cc1OC (configuration not stated) | < 5% | < 5 | < 5% | inactive | inactive |
| COc1ccc(CC(O)c2nc3ccccc3o2)cc1OC (configuration not stated) | < 5% | 5.1 | < 5% | inactive | – |
| NCc1nc2ccccc2[nH]1 | < 5% | < 5 | < 5% | inactive | inactive |
| NC(Cc1ccccc1)c1cc2ccccc2[nH]1 (configuration not stated) | < 5% | < 5 | < 5% | inactive | – |
| OC(Cc1ccccc1)c1nc2ccccc2o1 (configuration not stated) | < 5% | < 5 | < 5% | inactive | inactive |
| OC(Cc1ccccc1)c1nc2ccccc2s1 (configuration not stated) | < 5% | 5.25 | < 5% | inactive | – |
| NC(Cc1ccccc1)c1nc2ccccc2[nH]1 (configuration not stated) | < 5% | < 5 | < 5% | inactive | inactive |
| COc1ccc(CCc2nc3ccccc3s2)cc1OC | < 5% | 5.61 | < 5% | inactive | – |
| O/N=C(\Cc1ccccc1)c1cc2ccccc2[nH]1 | < 5% | < 5 | < 5% | inactive | – |
| CCNC(Cc1ccccc1)c1nc2ccccc2[nH]1 (configuration not stated) | < 5% | 5.84 | < 5% | inactive | – |
| OC(Cc1ccccc1)c1cc2ccccc2[nH]1 (configuration not stated) | < 5% | < 5 | < 5% | inactive | – |
| c1ccc(CCc2nc3ccccc3o2)cc1 | < 5% | 5.23 | < 5% | inactive | – |
| c1ccc(CCc2nc3ccccc3s2)cc1 | < 5% | 5.15 | < 5% | inactive | – |
| COC(=O)[C@@H]1[C@H]2C[C@H]3c4[nH]c5ccccc5c4CCN3C[C@@H]2CC[C@@H]1O | – | 7.74 | – | – | – |
| NC(Cc1ccccc1)c1nc2ccccc2s1 (configuration not stated) | < 5% | < 5 | < 5% | inactive | inactive |
| COc1ccc(CC(O)c2nc3ccccc3s2)cc1OC (configuration not stated) | < 5% | 5.16 | < 5% | inactive | – |
| COc1ccc(CCc2nc3ccccc3o2)cc1OC | < 5% | 5.59 | < 5% | inactive | – |
